Data reported in patent publication US12503436B2, “Compounds and compositions for treating conditions associated with STING activity” (NOVARTIS PHARMA AG, priority 2021, dated 2025).

Target: STING (Homo sapiens, UniProt Q86WV6, G230A/H232R/R293Q/R71H)
Assay: STING reporter assay in THP1-Dual KO-IFNAR2 cells (2′3′cGAMP stimulation, luciferase reporter)
Assay type: cell-based
Conditions: 15 μM 2′3′cGAMP stimulation, 24 h, read-out: Pharmaron, THP1_IFNAR2 STING 24 h Luci Normalized: GeoMean EC50
Method: STING pathway activation by the compounds described herein was measured using THP1-Dual™ cells (KO-IFNAR2).
THP1-Dual™ KO-IFNAR2 Cells (obtained from InvivoGen) were maintained in RPMI, 10% FCS, 5 ml P/S, 2 mM L-glut, 10 mM Hepes, and 1 mM sodium pyruvate. Compounds were spotted in empty 384 well tissue culture plates (Greiner 781182) by Echo for a final concentration of 0.0017-100 μM. Cells were plated into the TC plates at 40 μL per well, 2×10E6 cells/mL. For activation with STING ligand, 2′3′cGAMP (MW 718.38, obtained from Invivogen), was prepared in Optimem media.
The following solutions were prepared for each 1×384 plate: • Solution A: 2 mL Optimem with one of the following stimuli: • 60 μL of 10 mM 2′3′cGAMP→150 μM stock • Solution B: 2 mL Optimem with 60 μL Lipofectamine 2000→Incubate 5 min at RT
2 mL of solution A and 2 ml Solution B was mixed and incubated for 20 min at room temperature (RT). 20 μL of transfection solution (A+B) was added on top of the plated cells, with a final 2′3′cGAMP concentration of 15 μM. The plates were then centrifuged immediately at 340 g for 1 minute, after which they were incubated at 37° C., 5% CO2, >98% humidity for 24 h. Luciferase reporter activity was then measured. EC50 values were calculated by using standard methods known in the art.
Luciferase reporter assay: 10 μL of supernatant from the assay was transferred to white 384-plate with flat bottom and squared wells. One pouch of QUANTI-Luc™ Plus was dissolved in 25 mL of water. 100 μL of QLC Stabilizer per 25 mL of QUANTI-Luc™ Plus solution was added. 50 μL of QUANTI-Luc™ Plus/QLC solution per well was then added. Luminescence was measured on a Platereader (e.g., Spectramax I3X (Molecular Devices GF3637001)).
Luciferase reporter activity was then measured. EC50 values were calculated by using standard methods known in the art.

Chain of STING (Q86WV6 whole entry R71H/G230A/H232R/R293Q): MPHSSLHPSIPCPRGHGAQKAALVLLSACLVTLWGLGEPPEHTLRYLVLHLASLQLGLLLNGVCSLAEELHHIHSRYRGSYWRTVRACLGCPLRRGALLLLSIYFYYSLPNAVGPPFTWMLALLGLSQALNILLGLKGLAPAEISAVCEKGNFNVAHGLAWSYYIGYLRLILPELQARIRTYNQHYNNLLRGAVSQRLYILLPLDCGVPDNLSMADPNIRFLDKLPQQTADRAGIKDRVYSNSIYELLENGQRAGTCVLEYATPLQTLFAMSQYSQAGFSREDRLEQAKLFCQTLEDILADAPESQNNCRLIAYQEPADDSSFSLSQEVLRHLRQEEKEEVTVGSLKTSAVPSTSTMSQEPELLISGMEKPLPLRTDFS

| Compound | EC50 |
| --- | --- |
| 1-fluoro-N-(5-(2-((3aR,5r,6aS)-2-(2,2,2-trifluoroethyl)octahydrocyclopenta[c]pyrrol-5-yl)ethoxy)-1H-indol-3-yl)cyclopropane-1-carboxamide [Compound 371] | 200 to 1000 nM |
| 2,2-dimethyl-N-(5-(2-((3aR,5r,6aS)-2-(2,2,2-trifluoroethyl)octahydrocyclopenta[c]pyrrol-5-yl)ethoxy)-1H-indol-3-yl)cyclopropane-1-carboxamide [Compound 368] | 200 to 1000 nM |
| 3,3-dimethyl-N-(5-(2-((3aR,5r,6aS)-2-(2,2,2-trifluoroethyl)octahydrocyclopenta[c]pyrrol-5-yl)ethoxy)-1H-indol-3-yl)butanamide [Compound 339] | 200 to 1000 nM |
| 3-(hydroxymethyl)-N-(5-(2-((3aR,5r,6aS)-2-(2,2,2-trifluoroethyl)octahydrocyclopenta[c]pyrrol-5-yl)ethoxy)-1H-indol-3-yl)cyclobutane-1-carboxamide [Compound 343] | 200 to 1000 nM |
| 3-chloro-N-(5-(2-((3aR,5r,6aS)-2-(2,2,2-trifluoroethyl)octahydrocyclopenta[c]pyrrol-5-yl)ethoxy)-1H-indol-3-yl)cyclobutane-1-carboxamide [Compound 342] | 200 to 1000 nM |
| 3-hydroxy-N-(5-(2-((3aR,5r,6aS)-2-(2,2,2-trifluoroethyl)octahydrocyclopenta[c]pyrrol-5-yl)ethoxy)-1H-indol-3-yl)cyclobutane-1-carboxamide [Compound 347] | 200 to 1000 nM |
| 3-methyl-N-(5-(2-((3aR,5r,6aS)-2-(2,2,2-trifluoroethyl)octahydrocyclopenta[c]pyrrol-5-yl)ethoxy)-1H-indol-3-yl)oxetane-3-carboxamide [Compound 382] | 200 to 1000 nM |
| CC(=O)Nc1c[nH]c2ccc(O[C@@H]3C[C@H](c4ccc(C(F)(F)F)cc4)C3(C)C)cc12 (relative stereo) [Compound 432, N-(5-(cis-2,2-dimethyl-3-(4-(trifluoromethyl)phenyl)cyclobutoxy)-1H-indol-3-yl)acetamide] | 1000 to 5000 nM |
| O=C(Nc1c[nH]c2ccc(CC(O)Cc3ccc(C(F)(F)F)cc3)cc12)C1CC1 (single isomer, unassigned) [Compound 200, N-(5-(2-hydroxy-3-(4-(trifluoromethyl)phenyl)propyl)-1H-indol-3-yl)cyclopropanecarboxamide] | 200 to 1000 nM |
| O=C(Nc1c[nH]c2ccc(CC(O)Cc3ccc(C(F)(F)F)cc3)cc12)C1CC1 (single isomer, unassigned) [Compound 201, N-(5-(2-hydroxy-3-(4-(trifluoromethyl)phenyl)propyl)-1H-indol-3-yl)cyclopropanecarboxamide] | 200 to 1000 nM |
| CC(=O)Nc1c[nH]c2ccc(OCCC3CCCN(CC(F)(F)F)C3)cc12 (single isomer, unassigned) [Compound 279] | 1000 to 5000 nM |
| CC(=O)Nc1c[nH]c2ccc(OCCC3CCCN(CC(F)(F)F)C3)cc12 (single isomer, unassigned) [Compound 280] | 1000 to 5000 nM |
| CC(=O)Nc1c[nH]c2ccc(OC(C)Cc3ccc(C(F)(F)F)cc3)cc12 (single isomer, unassigned) [Compound 285, N-(5-((1-(4-(trifluoromethyl)phenyl)propan-2-yl)oxy)-1H-indol-3-yl)acetamide] | 1000 to 5000 nM |
| CC(=O)Nc1c[nH]c2ccc(OC(C)Cc3ccc(C(F)(F)F)cc3)cc12 (single isomer, unassigned) [Compound 286, N-(5-((1-(4-(trifluoromethyl)phenyl)propan-2-yl)oxy)-1H-indol-3-yl)acetamide] | 1000 to 5000 nM |
| C[C@]1(C(=O)Nc2c[nH]c3ccc(O[C@H]4C[C@H](c5ccc(C(F)(F)F)cc5)C4)cc23)CC[C@H](O)CC1 (single isomer, unassigned) [Compound 425, trans-4-hydroxy-1-methyl-N-(5-(trans-3-(4-(trifluoromethyl)phenyl)cyclobutoxy)-1H-indol-3-yl)cyclohexane-1-carboxamide] | 200 to 1000 nM |
| C[C@]1(C(=O)Nc2c[nH]c3ccc(O[C@H]4C[C@H](c5ccc(C(F)(F)F)cc5)C4)cc23)CC[C@@H](O)CC1 (single isomer, unassigned) [Compound 426, cis-4-hydroxy-1-methyl-N-(5-(trans-3-(4-(trifluoromethyl)phenyl)cyclobutoxy)-1H-indol-3-yl)cyclohexane-1-carboxamide] | 40 to 200 nM |
| CC(=O)Nc1c[nH]c2ccc(OCC[C@H]3CC[C@@H](C(F)(F)F)CC3)cc12 (single isomer, unassigned) [Compound 454, N-(5-(2-(cis-4-(trifluoromethyl)cyclohexyl)ethoxy)-1H-indol-3-yl)acetamide] | 200 to 1000 nM |
| CC(=O)Nc1c[nH]c2ccc(OCC[C@H]3CC[C@H](C(F)(F)F)CC3)cc12 (single isomer, unassigned) [Compound 456, N-(5-(2-(trans-4-(trifluoromethyl)cyclohexyl)ethoxy)-1H-indol-3-yl)acetamide] | 200 to 1000 nM |
| N#C[C@H]1C[C@@H]1C(=O)Nc1c[nH]c2ccc(O[C@H]3C[C@@H](c4ccc(C(F)(F)F)cc4)C3)cc12 (stereo in doubt) [Compound 332, cis-2-cyano-N-(5-(cis-3-(4-(trifluoromethyl)phenyl)cyclobutoxy)-1H-indol-3-yl)cyclopropane-1-carboxamide] | 200 to 1000 nM |
| CC1(C(=O)Nc2c[nH]c3ccc(OC4CC(c5ccc(C(F)(F)F)nc5)C4)cc23)CC1 (stereo in doubt) [Compound 580, 1-methyl-N-(5-(cis-3-(6-(trifluoromethyl)pyridin-3-yl)cyclobutoxy)-1H-indol-3-yl)cyclopropane-1-carboxamide] | 40 to 200 nM |
| CC(=O)Nc1c[nH]c2ccc(COCc3ccc(Cl)c(Cl)c3)cc12 [Compound 101, N-(5-(((3,4-dichlorobenzyl)oxy)methyl)-1H-indol-3-yl)acetamide] | 200 to 1000 nM |
| CC(=O)Nc1c[nH]c2ccc(O[C@H]3C[C@@H](c4ccc(C(F)(F)F)cc4)C3)cc12 [Compound 102, N-(5-(cis-3-(4-(trifluoromethyl)phenyl)cyclobutoxy)-1H-indol-3-yl)acetamide] | 40 to 200 nM |
| CC(=O)Nc1c[nH]c2ccc(O[C@H]3C[C@H](c4ccc(C(F)(F)F)cc4)C3)cc12 [Compound 103, N-(5-(trans-3-(4-(trifluoromethyl)phenyl)cyclobutoxy)-1H-indol-3-yl)acetamide] | 40 to 200 nM |
| CC(=O)Nc1c[nH]c2ccc(OCCC3CCN(c4ccc(C(F)(F)F)cc4)CC3)cc12 [Compound 104, N-(5-(2-(1-(4-(trifluoromethyl)phenyl)piperidin-4-yl)ethoxy)-1H-indol-3-yl)acetamide] | 200 to 1000 nM |
| CC(=O)Nc1c[nH]c2ccc(OCC(F)C3CCN(CC(F)(F)F)CC3)cc12 (stereo not drawn) [Compound 105, N-(5-(2-fluoro-2-(1-(2,2,2-trifluoroethyl)piperidin-4-yl)ethoxy)-1H-indol-3-yl)acetamide] | 1000 to 5000 nM |
| CC(=O)Nc1c[nH]c2ccc(COCc3cccc(C(F)(F)F)c3)cc12 [Compound 106, N-(5-(((3-(trifluoromethyl)benzyl)oxy)methyl)-1H-indol-3-yl)acetamide] | 200 to 1000 nM |
| COCC(=O)Nc1c[nH]c2ccc(OCCc3ccc(C(F)(F)F)cc3)cc12 [Compound 107, 2-methoxy-N-(5-(4-(trifluoromethyl)phenethoxy)-1H-indol-3-yl)acetamide] | 40 to 200 nM |
